These results are taken from patent publication EP0082731A1, “The use of peptides as medicaments” (NOVO INDUSTRI A/S, priority 1981, dated 1983).

In one test the test system is rat free fat cells. Put plainly: Lipolytic effect on rat free fat cells in vitro. Format: cell-based. To be noted: compared with glucagon.
In another test the test system is rats. Put plainly: Metabolic effects after administration to normally fasted and fed rats in vivo.
Test [1] deals with isolated perfused rat pancreas. Put plainly: IRI (insulin) release from the isolated perfused rat pancreas. The source says:
Such a use should be especially safe as no hypoglycaemia will occur during treatment because of the lack of IRI releasing effect in the presence of hypoglycaemia and normoglycaemia.
Furthermore, it is stated therein that compounds of formula I show no or minor, negligible metabolic effects. […] Based thereupon it is surprising that compounds of formula I have an insulin releasing effect on animals primed with glucose corresponding to hyperglycaemia.

Test [2] deals with isolated perfused rat pancreas. To be noted: known effect of glucagon; cited from earlier work.
A further test deals with Normoglycaemic Rats. Put plainly: Experiment D: effect on plasma glucose and plasma IRI levels in normoglycaemic rats. Type of test: in vivo, Wistar rats. The settings on record: normally fed rats; for Blood glucose / Plasma IRI: i.v. injection at 0 min, equimolar doses (glucagon 1 mg/kg, glucagon(1-21) 0.77 mg/kg), mean, N = 10. On the procedure: Glucagon (-1 mg/kg) and an equimolar dosis of glucagon(1-21), i.e. 0.77 mg/kg, were injected intravenously at the beginning time (time: 0 minutes) to normally fed male Wistar rats weighing 150 g (+/- 5 g). Blood samples were taken from the orbital plexus at the times -5, 2, 5, 10, 15, 30, and 60 minutes. Blood glucose was assayed according to the hexokinase method and plasma insulin was assayed by RIA. […] Contrary to glucagon, glucagon(1-21) had no effect on these parameters. Mean blood glucose values (N = 10) are stated in Table VI below, and mean plasma IRI values (N = 10) are stated in Table VII below.

Where [3] appears, read: buffer glucose concentration 2.0 mg/ml.
Where [4] appears, read: i.v., glucagon 1 mg/kg, glucagon(1-21) 0.77 mg/kg.

“des-pentapeptide-(22-26)-glucagon [des(22-26)glucagon]”: the lipolytic effect entry in the test on rat free fat cells is “negligible”. For the same substance, the metabolic effects result with rats is “No metabolic effects have been found”. For the same substance, the insulin releasing effect entry is listed as “have this effect” in test [1] (at hyperglycaemia) and “possesses an insulin releasing effect” in test [1] (setting [3]).
Take Glucagon [reference compound]: the insulin release entry in test [2] is listed as “releases insulin”. For the same substance, the insulin releasing effect entry in test [1] (at hyperglycaemia) is listed as “have this effect”; in test [1] (in the presence of normoglycaemia and hypoglycaemia), “has an insulin releasing effect”. Besides, the Blood glucose in the test on Normoglycaemic Rats (time 2 min) was determined as 1.2 mg/mL; in the test with Normoglycaemic Rats (time 5 min) it was 1.3 mg/mL; in the test on Normoglycaemic Rats (time 10 min), 1.3 mg/mL; in the test on Normoglycaemic Rats (time 15 min), 1.4 mg/mL; in the test with Normoglycaemic Rats (time 30 min), 1.5 mg/mL; in the test with Normoglycaemic Rats (time 60 min), 1.1 mg/mL. For the same substance, the Blood glucose in the test on Normoglycaemic Rats (time -5 min) was 0.9 mg/mL. The “Plasma IRI” value in the test on Normoglycaemic Rats (time 2 min) came out at 95 µU/ml; in the test with Normoglycaemic Rats (time 5 min), 98 µU/ml; in the test on Normoglycaemic Rats (time 10 min) it was 82 µU/ml; in the test with Normoglycaemic Rats (time 15 min), 67 µU/ml; in the test with Normoglycaemic Rats (time 30 min) it was 53 µU/ml; in the test on Normoglycaemic Rats (time 60 min) it was 17 µU/ml. Also, the “Plasma IRI” value in the test on Normoglycaemic Rats (time -5 min) is recorded as 19 µU/ml. For the same substance, in the test on Normoglycaemic Rats (setting [4]), the “effect on blood glucose” value is “significantly increasing effect”. Besides, the “effect on plasma IRI” value in the test on Normoglycaemic Rats (setting [4]) is given as “significantly increasing effect”.
Consider “glucagon(1-26) (HSQGTFTSDYSKYLDSRRAQDFVQWL; Glucagon; UniProt P01275 53-78, looked up, fragment)”, for which, in the test with rat free fat cells, the lipolytic effect result is recorded as “negligible”. Moreover, in the test with rats, the metabolic effects result is on record as “No metabolic effects have been found”. The insulin releasing effect result in test [1] (at hyperglycaemia) is given as “have this effect”; in test [1] (setting [3]), “possesses an insulin releasing effect”.
